From patent US20230399287A1, “NOVEL COMPOUNDS” (Sitryx Therapeutics Limited, priority 2020, published 2023)
Counter-ions that a name gives are not always drawn.

How the values were obtained:
IL-6 = test: THP-1 AlphaLISA IL-6 cytokine assay; format: cell-based; settings: LPS 24 hr then Nigericin 1 hour
Protocol: (§1) Measuring Inhibitory Effects on IL-1V and IL-6 Cytokine Output from THP-1s
(§2) The cytokine inhibition profiles of compounds of formula (I) were determined in a differentiated THP-1 cell assay. All assays were performed in RPMI-1640 growth medium (Gibco), supplemented with 10% fetal bovine serum (FBS; Gibco), 1% penicillin-streptomycin and 1% sodium pyruvate unless specified otherwise. The IL-1β and IL-6 cytokine inhibition assays were run in a background of differentiated THP-1 cells as described below. All reagents described were from Sigma-Aldrich unless specified otherwise. Compounds were prepared as 10 mM DMSO stocks.
(§3) THP-1 cells were expanded as a suspension up to 80% confluence in appropriate growth medium. Cells were harvested, suspended, and treated with an appropriate concentration of phorbol 12-myristate 13-acetate (PMA) over a 72 hr period (37° C./5% CO2).
(§4) Following 72 hrs of THP-1 cell incubation, cellular medium was removed and replaced with fresh growth media containing 1% of FBS. Working concentrations of compounds were prepared separately in 10% FBS treated growth medium and pre-incubated with the cells for 30 minutes (37° C./5% CO2). Following the 30 minute compound pre-incubation, THP-1s were treated with an appropriate concentration of LPS and the THP-1s were subsequently incubated for a 24 hr period (37° C./5% CO2). An appropriate final concentration of Nigericin was then dispensed into the THP-1 plates and incubated for 1 hour (37° C./5% CO2) before THP-1 supernatants were harvested and collected in separate polypropylene 96-well holding plates.
(§5) Reagents from each of the IL-1β and IL-6 commercial kits (Perkin Elmer) were prepared and run according to the manufacturer's instructions. Subsequently, fluorescence signal detection in a microplate reader was measured (EnVision® Multilabel Reader, Perkin Elmer).
(§6) Percentage inhibition was calculated per cytokine by normalising the sample data to the high and low controls used within each plate (+/−LPS respectively). Percentage inhibition was then plotted against compound concentration and the 50% inhibitory concentration ([…]) was determined from the resultant concentration-response curve.

IL-1β = test: THP-1 AlphaLISA IL-1β cytokine assay; format: cell-based; settings: LPS 24 hr then Nigericin 1 hour
Protocol: as §1, §2, §3, §4, §5, §6

hepatocytes [1] = test: Hepatocyte stability assay (human); format: in vitro ADME; settings: 10 μM compound, 60 min
Description: (§7) Defrosted cryo-preserved hepatocytes (viability>70%) were used to determine the metabolic stability of a compound via calculation of intrinsic clearance (Clint; a measure of the removal of a compound from the liver in the absence of blood flow and cell binding). Clearance data are particularly important for in vitro work as they can be used in combination with in vivo data to predict the half-life and oral bioavailability of a drug.
(§8) The metabolic stability in hepatocytes assay involved a time-dependent reaction using both positive and negative controls. The cells must be pre-incubated at 37° C. then spiked with test compound (and positive control); samples taken at pre-determined time intervals were analysed to monitor the change in concentration of the initial drug compound over 60 minutes. A buffer incubation reaction (with no hepatocytes present) acted as a negative control and two cocktail solutions, containing compounds with known high and low clearance values (verapamil/7-hydroxycoumarin and propranolol/diltiazem), acted as positive controls. • 1. The assay was run with a cell concentration of 0.5×10^6 cells/mL in Leibovitz buffer. • 2. All compounds and controls were run in duplicate. • 3. Compound concentration was 10 μM. • 4. All compounds and controls were incubated with both cells and buffer to show turnover is due to hepatic metabolism. • 5. All wells on the incubation plate had 326.7 μL of either cells or buffer added. • 6. Prior to assay, cell and buffer-only incubation plates were preincubated for 10 mins at 37° C. • 7. The assay was initiated by adding compounds, 3.3 μL of 1 mM in 10% DMSO-90% Buffer; final DMSO concentration is 0.1%. • 8. Samples were taken at regular timepoints (0, 5, 10, 20, 40, 60 min) until 60 mins. • 9. Sample volume was 40 μL and added to 160 μL of crash solvent (acetonitrile with internal standard) and stored on ice. • 10. At the end of the assay, the crash plates were centrifuged at 3500 rpm for 20 mins at 4° C. • 11. 80 μL of clear supernatant was removed and mixed with 80 μL of deionised water before being analysed by LC-MS/MS.
(§9) Raw LC-MS/MS data were exported to, and analysed in, Microsoft Excel for determination of intrinsic clearance. The percentage remaining of a compound was monitored using the peak area of the initial concentration as 100%. Intrinsic clearance and half-life values were calculated using a graph of the natural log of percentage remaining versus the time of reaction in minutes. Half-life (min) and intrinsic clearance (Clint in μL min^−1 10^−6 cells) values were calculated using the gradient of the graph (the elimination rate constant, k) and Equations 1 and 2.

hepatocytes [2] = test: Hepatocyte stability assay (mouse); format: in vitro ADME; settings: 10 μM compound, 60 min
Description: as §7, §8, §9

NRF2 = NRF2 +/- GSH activation assay (DiscoverX PathHunter NRF2 translocation kit); format: cell-based; settings: for EC50: U2OS PathHunter cells; for NRF2 activation Emax / Emax: normalised to dimethyl fumarate high control
[3] = Hepatocyte stability assay (mouse); format: in vitro ADME; settings: mouse, cryopreserved hepatocytes, 10 μM compound, 60 min, read-out: T½
Description: as §7, §8, §9

[4] = Homo sapiens, THP-1, differentiated THP-1 cells

Row | Structure (SMILES) | IC50 (IL-1β; [4]) [µM] | IC50 (IL-6; [4]) [µM] | further results
1 | C#CC(OC(=O)CC(=C)C(=O)O)c1ccc(C(F)(F)F)cc1 (single isomer, unassigned) [Example 37, 2-methylene-4-oxo-4-((1-(4-(trifluoromethyl)phenyl)prop-2-yn-1-yl)oxy)butanoic acid] | 14.5 | – | IC50 (IL-6; differentiated THP-1 cells): > 31.6 µM; Clint (hepatocytes [1]): <3 μL min^−1 10^−6 cells; T½ (hepatocytes [1]): >460 min; Clint (hepatocytes [2]): 34 μL min^−1 10^−6 cells; T½ (hepatocytes [2]): 48 min
2 | C#CC(OC(=O)CC(=C)C(=O)O)c1ccc(C(F)(F)F)cc1 (single isomer, unassigned) [Example 38, 2-methylene-4-oxo-4-((1-(4-(trifluoromethyl)phenyl)prop-2-yn-1-yl)oxy)butanoic acid] | – | – | IC50 (IL-6; differentiated THP-1 cells): > 100 µM; IC50 (IL-1β; differentiated THP-1 cells): 9.4 µM; Clint (hepatocytes [1]): 7 μL min^−1 10^−6 cells; T½ (hepatocytes [1]): 183 min; Clint (hepatocytes [2]): 13 μL min^−1 10^−6 cells; T½ (hepatocytes [2]): 163 min
3 | C=C(CC(=O)OC1(c2ccc(C(F)(F)F)cc2)CC(C(F)(F)F)C1)C(=O)O (single isomer, unassigned) [Example 43, 2-methylene-4-oxo-4-(3-(trifluoromethyl)-1-(4-(trifluoromethyl)phenyl)cyclobutoxy)butanoic acid] | 83.5 | > 100 | –
4 | C=C(CC(=O)OCCCCCCCC)C(=O)O [4-octyl itaconate, reference compound] | – | – | IC50 (IL-6; differentiated THP-1 cells): 20.3 µM; IC50 (IL-1β; differentiated THP-1 cells): 38.3 µM; EC50 (NRF2; +GSH): 28.9 µM; NRF2 activation Emax (NRF2; +GSH): 148%; EC50 (NRF2; −GSH): 22.1 µM; NRF2 activation Emax (NRF2; −GSH): 165%; Clint (hepatocytes [1]): 401 μL min^−1 10^−6 cells; T½ (hepatocytes [1]): 4 min; Clint (hepatocytes [2]): 351 μL min^−1 10^−6 cells; T½ (hepatocytes [2]): 4 min
5 | C=C(CC(=O)O[C@H](C)c1ccc(C(F)(F)F)cc1)C(=O)O [Example 3, (R)-2-methylene-4-oxo-4-(1-(4-(trifluoromethyl)phenyl)ethoxy)butanoic acid] | 33.6 | > 56.2 | –
6 | C=C(CC(=O)OC1(c2ccc(C(F)(F)F)cc2Cl)CCC1)C(=O)O [Example 6, 4-(1-(2-chloro-4-(trifluoromethyl)phenyl)cyclobutoxy)-2-methylene-4-oxobutanoic acid] | 45.4 | > 100 | –
7 | C=C(CC(=O)OC(CC)c1ccc(C(F)(F)F)cc1)C(=O)O (stereo not shown) [Example 10, 2-methylene-4-oxo-4-(1-(4-(trifluoromethyl)phenyl)propoxy)butanoic acid] | 5.8 | > 100 | Emax (NRF2; +GSH): 13%; EC50 (NRF2; Homo sapiens, U2OS, +GSH): > 100 µM; EC50 (NRF2; Homo sapiens, U2OS, −GSH): > 100 µM; Emax (NRF2; −GSH): 0%
8 | C=C(CC(=O)OC1(c2ccc(C)c(Cl)c2)CCC1)C(=O)O [Example 14, 4-(1-(3-chloro-4-methylphenyl)cyclobutoxy)-2-methylene-4-oxobutanoic acid] | 24.5 | > 100 | –
9 | C=C(CC(=O)OC1(c2ccc(OC(F)(F)F)cc2)CCC1)C(=O)O [Example 15, 2-methylene-4-oxo-4-(1-(4-(trifluoromethoxy)phenyl)cyclobutoxy)butanoic acid] | 15.9 | > 100 | –
10 | C=C(CC(=O)OC1(c2ccc(-c3ccc(F)cc3)cc2)CCC1)C(=O)O [Example 16, 4-(1-(4′-fluoro-[1,1′-biphenyl]-4-yl)cyclobutoxy)-2-methylene-4-oxobutanoic acid] | > 100 | 21.5 | –
11 | C=C(CC(=O)OC1(c2ccc(C(F)(F)c3ccccc3)cc2)CCC1)C(=O)O [Example 28, 4-(1-(4-(difluoro(phenyl)methyl)phenyl)cyclobutoxy)-2-methylene-4-oxobutanoic acid] | > 31.6 | 19.6 | –
12 | C=C(CC(=O)O[C@@H](c1ccc(C(F)(F)F)cc1)C(F)(F)F)C(=O)O [Example 33, (S)-2-methylene-4-oxo-4-(2,2,2-trifluoro-1-(4-(trifluoromethyl)phenyl)ethoxy)butanoic acid] | > 56.2 | > 63.1 | –
13 | C=C(CC(=O)OC1(c2ccc(C(F)(F)F)cc2)CN(C)C1)C(=O)O [Example 48, 4-((1-methyl-3-(4-(trifluoromethyl)phenyl)azetidin-3-yl)oxy)-2-methylene-4-oxobutanoic acid] | 58.4 | > 31.6 | –
14 | C=C(CC(=O)OC1(c2cc(F)c(C(F)(F)F)c(F)c2)CCC1)C(=O)O [Example 53, 4-(1-(3,5-difluoro-4-(trifluoromethyl)phenyl)cyclobutoxy)-2-methylene-4-oxobutanoic acid] | 29.7 | > 100 | –
15 | C=C(CC(=O)OC1(c2ccc3cc(Br)ccc3c2)CCC1)C(=O)O [Example 54, 4-(1-(6-bromonaphthalen-2-yl)cyclobutoxy)-2-methylene-4-oxobutanoic acid] | > 100 | 18.1 | –
16 | C=C(CC(=O)OCc1ccc(C(F)(F)F)c(F)c1)C(=O)O [Example 55, 4-((3-fluoro-4-(trifluoromethyl)benzyl)oxy)-2-methylene-4-oxobutanoic acid] | 19.5 | > 100 | Clint (hepatocytes [2]): 29 μL min^−1 10^−6 cells; half-life at 10 μM [3]: 55 min
17 | C=C(CC(=O)OCc1ccc(C(F)(F)F)cn1)C(=O)O [Example 56, 2-methylene-4-oxo-4-((5-(trifluoromethyl)pyridin-2-yl)methoxy)butanoic acid] | 46.2 | > 100 | –
18 | C=C(CC(=O)OC1(C#Cc2ccc(C(F)(F)F)cc2)CCC1)C(=O)O [Example 60, 2-methylene-4-oxo-4-(1-((4-(trifluoromethyl)phenyl)ethynyl)cyclobutoxy)butanoic acid] | > 100 | 34.1 | –
19 | C=C(CC(=O)OC1(c2cnc(C(F)(F)F)cn2)CCC1)C(=O)O [Example 63, 2-methylene-4-oxo-4-(1-(5-(trifluoromethyl)pyrazin-2-yl)cyclobutoxy)butanoic acid] | 50.9 | > 31.6 | –
20 | COC(=O)/C=C/C(=O)OC [dimethyl fumarate, reference compound] | – | 9.3 | IC50 (IL-1β; differentiated THP-1 cells): 14.4 µM; Emax (NRF2; +GSH): 19%; EC50 (NRF2; Homo sapiens, U2OS, +GSH): > 100 µM; EC50 (NRF2; Homo sapiens, U2OS, −GSH): 6 µM; Emax (NRF2; −GSH): 100%
21 | C=C(CC(=O)OC)C(=O)OC [dimethyl itaconate, reference compound] | > 100 | 100 | Emax (NRF2; +GSH): 77%; Emax (NRF2; −GSH): 137%
